Test results from patent publication US20250073185A1, “Composition Including Benzylaminoethanol Derivative as Active Ingredient for Prevention or Treatment of Metabolic Disease” (JLBIOTHERAPEUTICS, priority 2021, published 2025).

System: 3T3-L1 cells
Assay: Cytotoxicity measurement (WST assay, EZ-Cytox)
Format: cell-based
Conditions: 3T3-L1 cells, 0.1, 1, 5, 10 and 25 μM, 48 hours
Method: After 48 hours, 10 μl of EZ-Cytox was added to each cell culture which was then incubated for 30 minutes, and the absorbance at 450 nm was measured using a microplate reader.

OCCNCc1cc(Br)ccc1OCc1ccc(F)c(C(F)(F)F)c1 [AZ1, 2-(5-bromo-2-(4-fluoro-3-(trifluoromethyl)benzyloxy)benzylamino)ethanol]
cytotoxicity (cell viability vs untreated cells): did not exhibit cytotoxicity
